Data: patent US11938121B2, “Treatment of infections and biofilm formation using a cellulose synthase inhibitor” (Purdue Research Foundation, priority 2020, dated 2024)

How the values were obtained:
[1] = tested on: Komagataeibacter xylinus; assay: K. xylinus cellulose production in liquid culture; format: cell-based; details: 20 μM
From the text: We next grew K. xylinus cells in growth medium supplemented with DMSO, ES20, or ES20-1 under agitation. […] We also grew K. xylinus in liquid medium supplemented with DMSO, ES20, or ES20-1 under static cultivation conditions. Without agitation, pellicles containing cellulose often form at the air-liquid interface. […] To quantify the effects of ES20 and ES20-1 on cellulose production, we harvested the pellicles from these cultures and isolated cellulose from the pellicles.
(§1) Komagataeibacter xylinus (previously named Gluconacetobacter xylinus) ATCC strain 700178 was obtained from ATCC (Manassas, Va., USA) to evaluate cellulose production. HS (Hestrin and Schramm) medium was used for culture; HS liquid medium contains 2.0% glucose (w/v), 0.5% yeast extract (w/v), 0.5% peptone (w/v), 0.27% Na2HPO4 (w/v), and 0.15% citric acid (w/v), pH 5.0, and HS solid medium was solidified with 1.8% agar (w/v). To prepare the initial inoculation source, a single K. xylinus colony grown on HS solid medium was transferred to HS liquid medium and cultured at 26° C. for 5 days under static conditions. We used cells from the bottom of the liquid culture as the initial inoculation source to avoid biofilm aggregates at the air-liquid interface. To test the effect of ES20 and ES20-1 on the bacteria growth, initial inoculation source was series diluted and 20 μL culture from each diluted solution was dropped on HS solid medium supplemented with DMSO (0.1%) or different concentrations of ES20 and ES20-1 and cultured at 26° C. for 6 days after the dropped culture was completely dry. To test the effects of ES20 and ES20-1 on cellulose production, the prepared inoculation source was inoculated at a dilution ratio of 1:1000 dilution in HS liquid medium supplemented with 0.1% DMSO or 20 μM of ES20 or ES20-1. Static cultivation was carried out in a 26° C. incubator, and agitated cultivation was carried out at 26° C. with shaking at 220 rpm. To isolate cellulose from pellicles, the pellicles were removed from liquid culture, washed several times with deionized water, and soaked in 0.1 M NaOH at 80° C. for 2 h. The pellicles were washed several times with deionized water to completely remove the alkali. The purified cellulose was dried at 60° C. for ˜1 day until a constant dry mass was reached.

[2] = tested on: Komagataeibacter xylinus; assay: K. xylinus cell growth on HS solid medium; format: cell-based; details: 6 days
From the text: Based on primary protein sequence analysis and a comparison of three-dimensional protein structures, the catalytic sites of cellulose synthases are highly conserved across kingdoms (Huang et al., 2020, Purushotham et al., 2020). The amino acids that are directly involved in glucan chain initiation, elongation, and translocation are conserved between plant and bacterial cellulose synthases (Huang et al., 2020). Based on the conservation of catalytic sites in cellulose synthases, we hypothesized that ES20 and ES20-1 would inhibit bacterial cellulose biosynthesis as well. We chose to test the effects of ES20 and ES20-1 on cell growth and cellulose production in Komagataeibacter xylinus (K. xylinus, previously known as Gluconacetobacter xylinus) because this bacterium produces abundant cellulose. We first tested whether ES20 and ES20-1 affect K. xylinus cell growth. We grew K. xylinus cells in liquid […] (HS) medium and then we inoculated 20 μL of series diluted culture to HS solid growth medium supplemented with DMSO (0.1%) or different concentrations of ES20 and ES20-1. […] We found ES20 and ES20-1 affect K. xylinus colony morphology as well. […] Wrinkles radiating structure is often observed in cellulose-producing bacteria strains and this structure is often affected when cellulose biosynthesis is disrupted.
as §1, with “To isolate cellulose from pellicles, the pellicles were removed from liquid culture, washed several times with deionized water, and soaked in 0.1 M NaOH at 80° C. for 2 h. The pellicles were washed several times with deionized water to completely remove the alkali. The purified cellulose was dried at 60° C. for ˜1 day until a constant dry mass was reached.” left out

[3] = tested on: Arabidopsis Col-0; assay: Crystalline cellulose content measurement of cell wall; format: in vivo, Arabidopsis thaliana
Procedure: Arabidopsis Col-0 seeds were sown on growth medium supplemented with 0.1% DMSO, 1 μM ES20, or different concentrations of ES20 analogs. […] Cellulose extraction and measurement were performed as previously described (Huang et al., 2020).

[4] = 5 days static cultivation, vs DMSO

Cc1ccccc1C(=O)NNC(=S)NC(=O)c1ccccc1 [ES20-1]
size of cellulose clusters ([1]; 5 days agitated cultivation, vs DMSO): smaller | dry mass of cellulose from pellicles ([1]; 5 days static cultivation, mean±SD, n=9): 346 ± 152 mg/L | decrease of dry mass of cellulose from pellicles [1, 4]: ~30% | pellicle thickness [1, 4]: pellicles in cultures containing DMSO are thicker | K. xylinus cell growth inhibition ([2]; 20 μM and 50 μM): inhibit K. xylinus cell growth at both 20 μM and 50 μM concentrations | K. xylinus colony morphology (wrinkles radiating structures) ([2]; 20 μM): the wrinkles are not obvious | crystalline cellulose content in hypocotyl cell wall ([3]; 1 μM, 7-day-old dark-grown seedlings, mean±SD, n=3): 90 ± 6 µg/mg | reduction of crystalline cellulose levels in the hypocotyl ([3]; 1 μM, 7-day-old dark-grown seedlings, vs DMSO): ~45% | root cell wall crystalline cellulose content ([3]; 7-day-old light-grown seedlings, different concentrations): very potent in inhibiting cellulose biosynthesis in roots
